Residues, ends and D or L forms follow the SMILES beside them. *: point of attachment. Cbz = O=C(OCc1ccccc1)*
`O=C1OC(=O)c2c1c1c3ccccc3[nH]c1c1c2c2cccnc2n1C1OC(CO)C(O)C(O)C1O` (configuration not stated) gave a melting point of over 300 °C.
Compound `NC(=O)c1nc(-c2cccc(O)c2)nc2c1[nH]c(=O)n2CC1CCCCC1` has a melting point of 368 to 370 °C.
Work on `COc1ccc2c(c1)C=C(CN1CCC3(CC1)C(=O)NCN3c1ccccc1)CC2` yielded a melting point of 184 to 186 °C.
Compound `O=[N+]([O-])c1ccc(N2CCN(c3ccc(O)cc3)CC2)cc1` has a melting point of 260 °C.
For `C=CCOc1ccc2c(C)cc(=O)oc2c1C(=O)C=Cc1ccccc1`, the melting point was 136 to 139 °C.
`CCOC(=O)N1CCCC2(OCCO2)C1Cc1c[nH]c2ccccc12` (configuration not stated) showed a melting point of 122 to 125 °C.
`Cc1ccc(-c2ncc(C)c(C)n2)cc1` showed a melting point of 114 °C.
In the case of `O=CC1CCC(C2CC[Si](c3ccccc3)(c3ccccc3)CC2)CC1` (configuration not stated), the melting point is reported as 107 °C.
In the case of `Cc1c(C)c2ccc(OCC(O)CN3CCC(NC(=O)c4ccccc4)CC3)cc2oc1=O` (configuration not stated), the melting point is reported as 178 to 180 °C.
`C=CCOc1ccc(S(=O)(=O)Nc2ccc(Cl)cc2C(=O)c2ccccc2Cl)cc1` showed a melting point of 96 to 97 °C.
With `CCNC(=O)C1CCCN1C(=O)C(C)NC(=O)C(C)NC(=O)OCc1ccccc1` (stereo not drawn) (Cbz-Ala-Ala-Pro-NHEt; configuration not given here) the melting point was 139 to 140 °C.
Work on `Cc1cc2[nH]c3ccncc3c(=O)n2n1` yielded a melting point of over 300 °C.
In the case of `O=Cc1cccc2ncc(-c3ccccc3)nc12`, the melting point is reported as 149 °C.
In the case of `Cc1ccc(O)c(NCCCN2CCN(C(c3ccccc3)c3ccccc3)CC2)c1`, the melting point is reported as 178 to 179 °C.
Compound `COc1ccc(C(=O)c2cn(C)c3ccc([N+](=O)[O-])cc23)cc1` has a melting point of 229 °C.
With `CC(Oc1ccc(Oc2ccc(Oc3ccc(OC(C)C(=O)O)cc3)cc2)cc1)C(=O)O` (configuration not stated) the melting point was 135 to 136 °C.
With `COc1cc2c(cc1OC)C(=O)C(Cc1ccncc1)C2` (configuration not stated) the melting point was 192 to 193 °C.
For `Cc1ccc(-c2ccc3c(c2)C=C(C(=O)Nc2ccc(CS(=O)c4ccccc4)cc2)CCO3)cc1` (configuration not stated), the melting point was 127 to 128 °C.
In the case of `Cc1cc(-c2nc3cccnn3c2-c2ccnc(NC(=O)c3ccsc3)c2)ccc1F`, the melting point is reported as 217 to 218 °C.
With `S=C(Nc1ccccc1)N(Cc1ccc(Br)cc1)C1CCCC1` the melting point was 129 to 131 °C.
`O=C(CCl)N1CC(c2ccccc2)c2ccccc21` (configuration not stated) showed a melting point of 76 to 78 °C.
`COCCN(C)c1nnc(-c2ccc(-c3ccccc3)nc2)n1-c1ccccc1C#N` showed a melting point of 148 to 149 °C.
In the case of `COCCc1nc2c(N)nc3cc(OCCn4cccc4)ccc3c2n1CC(C)(C)O`, the melting point is reported as 168 to 169 °C.
`CO[C@H]1c2ccn3c(C)c(C)nc3c2N[C@H](c2ccccc2)[C@H]1O` showed a melting point of 108 to 110 °C.
In the case of `CC(C(=O)O)c1ccc(-n2cc(Br)cn2)cc1` (configuration not stated), the melting point is reported as 154 to 155 °C.
With `CS(=O)(=O)c1ccc(-n2nc(C(=O)O)cc2-c2ccc(-c3ccco3)cc2)cc1` the melting point was over 280 °C.
`Nc1c(-c2ccc(I)cc2)nc2ccc(F)cc2c1C(=O)O` showed a melting point of 251 to 253 °C.
`CCCCOc1ccc(NC(=O)c2cnc(C(=O)OC)c(Cl)c2)cc1` gave a melting point of 121 to 123 °C.
`CCC1CC2C3CC=C4CC(OC(C)=O)CCC4(C)C3CCC2(C)C1C(C)=O` (configuration not stated) gave a melting point of 115 °C.
For `O=C1c2ccccc2C(=O)c2c1c(O)c1ccccc1c2O`, the melting point was 214 to 216 °C.
In the case of `CCS(=O)(=O)CCC(=O)NNC(=O)N1Cc2ccccc2Oc2ccc([N+](=O)[O-])cc21`, the melting point is reported as 198 to 200 °C.
In the case of `COc1cccc(NC(=O)NCc2ccc3c(c2)C(=O)N(C2CCC(=O)NC2=O)C3=O)c1` (configuration not stated), the melting point is reported as 323 to 325 °C.
For `NC(=O)c1cc(Oc2ccc(Cl)c(Cl)c2)cnc1O`, the melting point was 246 to 249 °C.
For `CCc1c(C)cc(C(=O)NC(C(=O)OC)c2cccs2)c(=O)n1Cc1ccc(F)cc1` (configuration not stated), the melting point was 182 to 184 °C.
In the case of `Cc1ccc(S(=O)(=O)N2[C@@H](c3nc(C)no3)CC[C@H]2c2ccc(F)cc2)cc1` (racemic), the melting point is reported as 128 °C.
In the case of `COc1cc(-c2ncnc(C)c2Cl)c(F)cc1Cl`, the melting point is reported as 136 to 140 °C.
`CN(Cc1cccc(-c2ccc(CC3SC(=O)NC3=O)cc2)c1)C(=O)c1ccc2cc(O)ccc2c1` (configuration not stated) gave a melting point of 218 °C.
`O=C(O)c1n[nH]c2cc(F)ccc12` showed a melting point of over 290 °C.
`CCCCn1ccc(-c2ccc(Oc3ccnc(C)c3)c(F)c2)c(C#N)c1=O` gave a melting point of 125 °C.
`CCOC(=O)CCn1c(C(=O)Nc2nc(-c3cc(OC)c(Cl)cc3OC)c(CCC3CCCCC3)s2)cc2ccccc21` gave a melting point of 79 to 85 °C.
In the case of `COc1ccc(CN(C)CCOc2ccc(NC(=O)c3cccc4c(=O)cc(-c5ccccc5)[nH]c34)cc2)cc1OC`, the melting point is reported as 175 °C.
`Cc1c(F)c(F)cc2c1c(=O)c(C(=O)O)cn2-c1cc(N)c(F)cc1F` showed a melting point of over 270 °C.
`CCOc1ccnc(F)c1` showed a melting point of 35 to 36 °C.
`COc1ccc(Nc2cccc3c2C(=O)N(C2CCC(=O)NC2=O)C3=O)cc1OC` (configuration not stated) showed a melting point of 215 to 217 °C.
In the case of `COC(=O)C1=C(O)C(OC)(OC)C(O)=C(C(=O)OC)C1`, the melting point is reported as 143 to 144 °C.
Compound `CN(c1ccc(Cl)cc1)c1ncccc1[N+](=O)[O-]` has a melting point of 107 to 110 °C.
Work on `CC=CCC(O)(C(=O)c1ccccc1)C(=O)c1ccc(C(C)C)cc1` (configuration not stated) yielded a melting point of 108 to 110 °C.
With `Cc1ccc(/C=C/c2nc(COc3ccc(CCCCn4ccnc4CCO)cc3)co2)cc1` the melting point was 108 to 109 °C.
In the case of `CCCc1cc(N2CCC(NCC(O)c3ccnc4ccccc34)CC2)nc2sc(C(N)=O)c(N)c12` (configuration not stated), the melting point is reported as 170 to 172 °C.
In the case of `CCOC(=O)c1c(C)cc2c(c1C)c(=O)n(-c1ccccc1Cl)c(=O)n2CC(=O)NCCN(CC)CC`, the melting point is reported as 193 to 194 °C.
Work on `COc1ccc(C=C(Br)Br)cc1OC(C)C` yielded a melting point of 67 to 69 °C.
Work on `CCCC(CCC)C(=O)NCC(=O)NCCCCCCNC(=O)n1cc(F)c(=O)[nH]c1=O` yielded a melting point of 111 to 112 °C.
Work on `COc1ccc(OC)c(C2(C(C)(C)O)CCN(C)CC2)c1` yielded a melting point of 139 to 140 °C.
For `CC(C)C(=O)N1C(=O)C2C=CC1C2` (configuration not stated), the melting point was 41 to 42 °C.
For `O=C1c2ccc([N+](=O)[O-])cc2COc2cc(Nc3ccc(F)cc3[N+](=O)[O-])ccc21`, the melting point was 211 °C.
Compound `CC(=Cc1c(-c2ccccc2)nc2sc(C)nn12)C(=O)O` has a melting point of 298 to 300 °C.
With `O=C(O)Cc1cn(-c2ccccc2)c2ccccc12` the melting point was 131 to 135 °C.
Work on `COc1cc(N(C)c2nccc(-c3ccncc3)n2)cc(OC)c1OC` yielded a melting point of 139 °C.
For `O=C(O)c1ccc(C(=C2SCCCS2)c2ccccc2)cc1`, the melting point was 261 to 262 °C.
Compound `CCOC(=O)c1cc2cc(/C=C/C(=O)c3cc(OC)c(OC)c(OC)c3)cc(C(C)CC)c2oc1=O` (configuration not stated) has a melting point of 138 to 139 °C.
For `CN(C)C(=O)Nc1cccc(CCC#N)c1`, the melting point was 159 to 161 °C.
For `CN1CCC(=C2c3ccccc3CCc3sc(Br)cc32)CC1`, the melting point was 141 to 142 °C.
Compound `CCO[C@@H]1c2ccc3c(nc(C)n3C)c2O[C@H](c2ccccc2)[C@H]1O` has a melting point of 222 °C.
For `COc1ccc(-c2cnc(N)c(Sc3cc(C(F)(F)F)cc(C(F)(F)F)c3)n2)cc1`, the melting point was 136 to 138 °C.
Work on `Cc1ccc(C)c(-c2sc(NC(=O)[C@@H]3CC4CCC3CC4)c(C#N)c2Cl)c1` yielded a melting point of 208 to 210 °C.
With `COc1ccc2c(c1)C(C(=O)O)CCC2` (configuration not stated) the melting point was 126 to 127 °C.
`CCCCCC(=NOC)c1cc(C#N)c(=O)[nH]c1C` showed a melting point of 159 to 165 °C.
In the case of `COc1ccnc2[nH]cc(-c3ccnc(N)n3)c12`, the melting point is reported as over 210 °C.
In the case of `CCOC(=O)c1cc2c(cc(C)n2OC)nc1C(=O)OCC`, the melting point is reported as 94.5 to 96.5 °C.
Compound `CCc1cccc(CC)c1NC(=O)c1c(-c2ccccc2)oc(C)cc1=O` has a melting point of 186 to 189 °C.
Compound `CCOP(=O)(Cc1ccc(N)c2ccccc12)OCC` has a melting point of 73 to 74 °C.
Work on `O=C(Nc1cccc(S(=O)(=O)Nc2ccccc2)c1)c1cnn2c(C(F)(F)F)cc(-c3ccc(C(F)(F)F)cc3)nc12` yielded a melting point of 258 °C.
`CCCc1c(OCCCCCCc2cccc(OCC(=O)O)c2CCC(=O)O)ccc2c1OCCC2=O` gave a melting point of 127 to 129 °C.
With `CC(C)(c1ccc(Oc2ccc(N3C(=O)C=CC3=O)cc2)cc1)c1ccc(C(C)(C)c2ccc(Oc3ccc(N4C(=O)C=CC4=O)cc3)cc2)cc1` the melting point was 214 to 216 °C.
`COCC1CN(c2ccc(C3CCC(OC)CC3)cc2)C(=O)O1` (configuration not stated) showed a melting point of 82 to 83 °C.
For `CCOC(=O)c1ncc2[nH]c3c(C(C)(C)C)cc(C(C)(C)C)cc3c2c1C`, the melting point was 260 to 263 °C.
Work on `CCCCCCCCCCC1(CCCCCCCCCC)c2cc(Br)ccc2-c2ccc(C=O)cc21` yielded a melting point of 45 to 47 °C.
Work on `O=C(NCc1ccc2c(c1)OCO2)c1ccc2[nH]c(=O)n(Cc3ccc4c(c3)OCO4)c(=O)c2c1` yielded a melting point of 245 °C.
`CCOC(=O)Cc1c(C(=O)OCC)c(C)c(C(=O)OCC)n1CC` showed a melting point of 142 to 145 °C.
In the case of `CCN(CC)C(=O)c1ccc(C(=C2CC3CCC(C2)N3C)c2ccccc2)cc1`, the melting point is reported as 145 to 147 °C.
`OCc1cccc(-c2cc3nccnc3[nH]2)c1` showed a melting point of 225 to 226 °C.
For `CSC(=NS(=O)(=O)c1ccccc1)Nc1ccc(C#N)cc1`, the melting point was 150 °C.
`O=C(Nc1ccccc1N1CCCCC1)c1ccncc1` showed a melting point of 111 to 113 °C.
`CCCCc1nc2ncccc2n1Cc1ccc(-c2ccccc2C(=O)O)cc1` showed a melting point of 170 °C.
Work on `Cc1nn(-c2ccccn2)c2ncc(C(=O)N(C)c3ccccc3)c(Cl)c12` yielded a melting point of 154 to 155 °C.
`CCCC[C@@H](C)C[C@@H](CC(=O)OC(C)(C)C)C(=O)N1C(=O)O[C@@H](c2ccccc2)[C@H]1C` gave a melting point of 84 to 86 °C.
With `COc1cc(C)c2c(Oc3cccc(C(F)(F)F)c3)c(OC)cc(NC(C)CCC[N+](=O)[O-])c2n1` (configuration not stated) the melting point was 84.8 to 85.1 °C.
For `O=C(O)CCn1nc2ccc(S)nn2c1=O`, the melting point was 174 to 176 °C.
In the case of `CCCOc1cc(-c2nc(-c3ccc(C(=O)OC)o3)cs2)ccc1OC`, the melting point is reported as 141 to 142 °C.
For `CC1(C)CC(C)(C)CC(C)(NC=O)C1`, the melting point was 104 to 106 °C.
`CC(C)(C)CC(C)(C)NSc1nc2ccccc2s1` showed a melting point of 104 °C.
With `C=Cc1ccc2sc(S(N)(=O)=O)cc2c1` the melting point was 168 to 170 °C.
`Nc1cc(-c2nnc(CCc3cccc(F)c3)o2)ccn1` gave a melting point of 165 to 166 °C.
In the case of `CCOC(=O)c1sc(N)nc1C(C)C`, the melting point is reported as 174 to 178 °C.
`N=C(NO)c1ccc(-c2cccc(-c3nc4cc(C(=N)NO)ccc4[nH]3)c2)nc1` showed a melting point of 295 to 297 °C.
For `COC(=O)C(CC1CCCC1)c1ccc(S(C)(=O)=O)c(F)c1` (configuration not stated), the melting point was 66 to 68 °C.
Compound `CC(C)(CCCC(=O)O)c1cc(C(=O)O)c(O)c(C(C)(C)CCCC(=O)O)c1` has a melting point of 161 to 163 °C.

From a melting point compilation (Tetko et al.; mined from patent text by program, amines drawn as free bases though some values may be those of a salt)
